Experimental data reported in patent US12187663B2, “Thyromimetics with a biphenylmethane scaffold and their use” (INTERNATIONAL SOCIETY FOR DRUG DEVELOPMENT S.R.L., priority 2019, dated 2025).

What was measured:
HepG2 cells = experiment: Glycerol release (lipolysis); type: cell-based, Human; settings: 24 hours treatment, 1 and 10 μM
Method: Samples of the media collected from HepG2 cells used to test lipid accumulation by Oil Red O staining (as detailed above), were assayed for glycerol levels using the Glycerol Assay Kit (Cell Based-ab133130-Abcam).

[1] = Panel of early-toxicity assays (in vitro ADME-TOX profiling); settings: 10 μM of each compound
Method: FIG. 5. ADME-TOX profiling In order to assess the ADME-TOX profile of new synthetized compounds a full panel of in vitro assays was performed. Cytotoxic effects were evaluated on 4 different cell lines (U2-OS, HEK293, hTERT, MCF-7) at 24 h and 48 h after treatment with new compounds. Cardiac toxicity was assessed evaluating the inhibition effect of compounds on the hERG ion-channel, an important anti-target involved in heart functionalities. Metabolic interference was evaluated testing inhibitory effects of new compounds on four isoforms of CYP450 (CYP2C9, CYP2C19, CYP2D6, CYP3A4). In order to assess off-target liabilities, the inhibitory effects have been assessed against several well-known off-targets. […] The data were collected and analyzed in the form of a traffic-light system using criteria shown below.
Test compounds (20 nL of 10 mM top concentration in 100% v/v DMSO), positive control (PC; Valinomycin with final concentration of 10 μM and 0.1% v/v DMSO) and NC (final 0.1% v/v DMSO) were added in an empty polystyrene 384-well cell culture microtiter plate using the Echo 550 Liquid Handler and stored at room temperature before cell's seeding. […] At 24 h and 48 h post-treatment, 20 μL/well of CTG detection mix were added, and plates were read using an EnVision Multilabel 2103 Reader after a 10-min incubation in the dark. […]

pancreatic acinar cells = experiment: Pancreatic acinar cell proliferation (BrdU labeling index); type: in vivo, rats; settings: one week; T3 4 mg/kg diet; GC1 50 μg/kg gavage once daily; TG68 and IS25 50 μg/kg in drinking water
Method: FIG. 9. […] BrdU (1 mg/ml) in drinking water was given all throughout the experimental time. […] LI was expressed as number of BrdU-positive acinar cell nuclei/100 nuclei. At least 2000 acinar cells per pancreas were scored. Results are expressed as means±SE of 3 to 5 rats per group. (one way ANOVA). ***Statistically significant from control; P<0.001.
BrdU (1 mg/ml) in drinking water was given all throughout the experimental time. […] LI was expressed as number of BrdU-positive acinar cell nuclei/100 nuclei. At least 2000 acinar cells per pancreas were scored.

hepatocytes = experiment: Mitotic activity of hepatocytes (BrdU incorporation); type: in vivo, F344 rats; settings: 3 days; for hepatocyte proliferation (mitogenic effect): i.p. injection 75 μg/100 g b.w.; for hepatocyte proliferation (BrdU incorporation): intragastric (i.g.) 50, 75 and 100 μg/100 g b.w.
Source text: FIG. 7. […] A. Labeling Index (L.I.) of hepatocytes from F344 rats subjected to the treatment with test compounds was expressed as number of BrdU-positive hepatocyte nuclei/100 nuclei. Results were expressed as means±S.E. of 3-5 rats per group. At least 3000 hepatocytes per liver were scored. *P<0.05; **P<0.01.
(§1) Five-week-old male F-344 rats purchased from Charles River (Milano, Italy) were maintained on a standard laboratory diet (Ditta Mucedola, Milano, Italy). The animals were given food and water ad libitum with a 12-h light/dark daily cycle and were acclimated for 1 week before the start of the experiment. All procedures were performed in accordance with the Guidelines for the Care and Use of Laboratory Animals and were approved by the Italian Ministry of Health. […] A control group received the vehicle (DMSO 5% in corn oil). Additional two groups received daily injections of either IS25 or TG68 at the dose of 75 μg/100 g b.wt. intraperitoneally for 3 days. For the measurement of hepatocyte proliferation, animals received bromodeoxyuridine (BrdU; 1 g/1 L) in drinking water during the 3-day treatment period (FIGS. 7A and B).

[2] = Liver/body weight ratio in rats; type: in vivo, F344 male rats; settings: 3 days daily; IS25 or TG68 50, 75, 100 μg/100 g b.w. i.g. or 75 μg/100 g i.p.; T3 20 μg/100 g b.w.
Method: as §1
A control group received the vehicle (DMSO 5% in corn oil). Additional two groups received daily injections of either IS25 or TG68 at the dose of 75 μg/100 g b.w. intraperitoneally for 3 days.

SMILES	glycerol release / lipolysis (HepG2 cells)	early-toxicity / liability profile (% inhibition heat map) [1]	pancreatic acinar cell proliferation (BrdU-positive acinar cells) (pancreatic acinar cells)	hepatocyte proliferation (mitogenic effect) (hepatocytes)	hepatocyte proliferation (BrdU incorporation) (hepatocytes)	liver/body weight ratio [2]
Cc1cc(OCC(=O)O)cc(C)c1Cc1ccc(N)c(C(C)C)c1 [IS25, 2-(4-(4-amino-3-isopropylbenzyl)-3,5-dimethylphenoxy)acetic acid]	induce lipolysis	safer profile	mitogenic only for the liver and not for other tissues	the mitogenic effect was lost	induced a dose dependent hepatocyte proliferation	no such effect was observed
CC(=O)Nc1ccc(Cc2c(C)cc(OCC(=O)O)cc2C)cc1C(C)C [TG68, 2-(4-(4-acetamido-3-isopropylbenzyl)-3,5-dimethylphenoxy)acetic acid]	induce lipolysis	safer profile	mitogenic only for the liver and not for other tissues	the mitogenic effect was lost	induced a dose dependent hepatocyte proliferation	no such effect was observed
